Measured values: patent publication US12606528B2, “Methods and materials for inhibiting NF-kB activity” (University of Pittsburgh - Of the Commonwealth System of …, priority 2019, dated 2026)
Like-named read-outs stand apart in the source and are kept apart here.

Experiments:
[1] = tested on: NF-κB; test: NF-κB assay: THP1-NF-κB-LUC cells, LPS-stimulated secreted luciferase; assay type: cell-based; conditions: THP1-NF-κB-LUC cells, read-out: IC50 (NF-κB assay)
Outline: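 THP1-NF-κB-LUC cells (25k/well) were pretreated with compounds for 2 h, then stimulated with LPS (10 ng/mL) for 18 h. Secreted luciferase was measured and normalized to vehicle, and IC50 was fitted from the concentration series.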

[2] = tested on: TNF release; test: TNF assay: TNF release from LPS-stimulated human PBMCs (TNF ELISA); assay type: cell-based; conditions: PBMC, read-out: IC50 (TNF assay)
Outline: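 TNF ELISA on supernatants read-out; cells were 10k human PBMCs/well given LPS at 10 ng/mL for 18 h after a 2 h compound pre-incubation across a concentration series, with IC50 derived for suppression of TNF secretion.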

[3] = LPS-stimulated human PBMCs, TNF ELISA
[4] = compounds 2 hours before LPS (10 ng/mL) for 18 hours, secreted luciferase
[5] = human PBMCs, compounds 2 hours before LPS (10 ng/ml) for 18 hours, supernatant TNF ELISA

Row | Structure (SMILES) | IC50 ([1]; LPS-stimulated) [µM] | IC50 [2, 3] [µM] | IC50 [1, 4] [µM] | IC50 [2, 5] [µM]
1 | Cc1ccc(S(=O)(=O)c2nc(-c3ccccc3)oc2S(C)(=O)=O)cc1 [BC19260] | < 0.1 | < 0.1 |  | 
2 | CS(=O)(=O)c1oc(-c2ccccc2)nc1S(=O)(=O)c1cccc(F)c1 [BC19261] | < 0.1 | > 10 |  | 
3 | CS(=O)(=O)c1oc(-c2ccccc2)nc1S(=O)(=O)c1ccc(F)c(F)c1 [BC19262] | 0.1 to 1 | < 0.1 |  | 
4 | Cc1ccc(S(=O)(=O)c2nc(-c3ccccc3)oc2S(=O)(=O)C(C)C)cc1 [BC19263] | 0.1 to 1 | 0.1 to 1 |  | 
5 | CCCS(=O)(=O)c1oc(-c2ccccc2)nc1S(=O)(=O)c1ccc(C)cc1 [BC19264] | < 0.1 | 0.1 to 1 |  | 
6 | Cc1ccc(S(=O)(=O)c2nc(-c3ccccc3)oc2S(=O)(=O)CC2CC2)cc1 [BC19265] | < 0.1 | 0.1 to 1 |  | 
7 | COCCS(=O)(=O)c1oc(-c2ccccc2)nc1S(=O)(=O)c1ccc(C)cc1 [BC19266] | < 0.1 | < 0.1 |  | 
8 | Cc1ccc(S(=O)(=O)c2nc(-c3ccccc3)oc2S(=O)(=O)C2CCCCC2)cc1 [BC19267] | < 0.1 | 0.1 to 1 |  | 
9 | CCC[S+]([O-])c1oc(-c2ccccc2)nc1S(=O)(=O)c1cccc(F)c1 (stereo not drawn) [BC19268] | 0.1 to 1 | < 0.1 |  | 
10 | CC(C)S(=O)(=O)c1oc(-c2ccccc2)nc1S(=O)(=O)c1cccc(F)c1 [BC19269] | 0.1 to 1 | < 0.1 |  | 
11 | CC(C)CS(=O)(=O)c1oc(-c2ccccc2)nc1S(=O)(=O)c1cccc(F)c1 [BC19270] | < 0.1 | < 0.1 |  | 
12 | O=S(=O)(CC1CC1)c1oc(-c2ccccc2)nc1S(=O)(=O)c1cccc(F)c1 [BC19271] | 0.1 to 1 | < 0.1 |  | 
13 | COCC[S+]([O-])c1oc(-c2ccccc2)nc1S(=O)(=O)c1cccc(F)c1 (stereo not drawn) [BC19272] | < 0.1 | < 0.1 |  | 
14 | CCCS(=O)(=O)c1oc(-c2ccccc2)nc1S(=O)(=O)c1ccc(F)c(F)c1 [BC19273] | 0.1 to 1 | 0.1 to 1 |  | 
15 | CC(C)S(=O)(=O)c1oc(-c2ccccc2)nc1S(=O)(=O)c1ccc(F)c(F)c1 [BC19274] | < 0.1 | 0.1 to 1 |  | 
16 | CC(C)CS(=O)(=O)c1oc(-c2ccccc2)nc1S(=O)(=O)c1ccc(F)c(F)c1 [BC19275] | < 0.1 | < 0.1 |  | 
17 | COCCS(=O)(=O)c1oc(-c2ccccc2)nc1S(=O)(=O)c1ccc(F)c(F)c1 [BC19276] | 0.1 to 1 | < 0.1 |  | 
18 | O=S(=O)(c1ccc(F)c(F)c1)c1nc(-c2ccccc2)oc1S(=O)(=O)C1CCCCC1 [BC19277] | < 0.1 | 0.1 to 1 |  | 
19 | CC(C)CS(=O)(=O)c1oc(-c2ccccc2)nc1S(=O)(=O)c1ccc(Cl)cc1 [BC19278] | < 0.1 | < 0.1 |  | 

Row | Structure (SMILES) | IC50 ([1]; LPS-stimulated) [µM] | IC50 [2, 3] [µM] | IC50 [1, 4] [µM] | IC50 [2, 5] [µM]
20 | CS(=O)(=O)c1sc(-c2ccccc2)nc1S(=O)(=O)c1ccc(F)c(F)c1 [BC19279] | 0.1 to 1 | 0.1 to 1 |  | 
21 | COc1ccc(NS(=O)(=O)c2cc3c(cc2Cl)NC(=O)C(C)O3)cc1Cl (stereo not drawn) [BC19280] |  |  | 1 to 10 | > 10
22 | CCOc1ccc(NS(=O)(=O)c2cc3c(cc2Cl)NC(=O)C(C)O3)cc1 (stereo not drawn) [BC19281] |  |  | 0.1 to 1 | > 10
23 | CCC1Oc2cc(S(=O)(=O)Nc3cccc(C(C)=O)c3)c(Cl)cc2NC1=O (stereo not drawn) [BC19282] |  |  | 0.1 to 1 | > 10
24 | CCc1cccc(NS(=O)(=O)c2cc3c(cc2Br)NC(=O)C(C)O3)c1 (stereo not drawn) [BC19283] |  |  | 0.1 to 1 | > 10
25 | CC1Oc2cc(S(=O)(=O)Nc3ccc(F)c(F)c3)c(Br)cc2NC1=O (stereo not drawn) [BC19284] |  |  | < 0.1 | > 10
26 | CC1Oc2cc(S(=O)(=O)Nc3ccc(F)cc3Cl)c(Br)cc2NC1=O (stereo not drawn) [BC19285] |  |  | 1 to 10 | > 10
27 | CCC1Oc2cc(S(=O)(=O)Nc3ccc(Cl)cc3)c(Br)cc2NC1=O (stereo not drawn) [BC19286] |  |  | < 0.1 | > 10
28 | CCC1Oc2cc(S(=O)(=O)NCc3ccccc3)c(Br)cc2NC1=O (stereo not drawn) [BC19287] |  |  | 1 to 10 | > 10
29 | CCc1cccc(NS(=O)(=O)c2cc(Br)cc3c2OC(C)C(=O)N3)c1 (stereo not drawn) [BC19288] |  |  | < 0.1 | > 10
30 | CC1Oc2c(cc(Br)cc2S(=O)(=O)Nc2ccc(F)cc2Cl)NC1=O (stereo not drawn) [BC19289] |  |  | < 0.1 | > 10
31 | CCC1Oc2c(cc(Br)cc2S(=O)(=O)Nc2ccc(Cl)cc2)NC1=O (stereo not drawn) [BC19290] |  |  | < 0.1 | > 10
32 | CC1Oc2c(cc(Cl)cc2S(=O)(=O)Nc2ccccc2)NC1=O (stereo not drawn) [BC19291] |  |  | < 0.1 | > 10
33 | COc1ccc(NS(=O)(=O)c2cc(Cl)cc3c2OC(C)C(=O)N3)cc1Cl (stereo not drawn) [BC19292] |  |  | < 0.1 | > 10
34 | CC(C)NS(=O)(=O)c1cc(Cl)cc2c1OC(C)C(=O)N2 (stereo not drawn) [BC19293] |  |  | 0.1 to 1 | > 10
35 | CCNS(=O)(=O)c1cc(Cl)cc2c1OC(C)C(=O)N2 (stereo not drawn) [BC19294] |  |  | 1 to 10 | > 10
36 | CC(=O)N1CC(=O)Nc2ccc(S(=O)(=O)N3CCCC3)cc21 [BC19295] | < 0.1 | > 10 |  | 
37 | CC1C(=O)Nc2ccc(S(=O)(=O)N3CCCC3)cc2N1C (stereo not drawn) [BC19296] | 1 to 10 | > 10 |  | 
38 | CC1C(=O)Nc2ccc(S(=O)(=O)N3CCCC3)cc2N1C(=O)N1CCOCC1 (stereo not drawn) [BC19297] | 1 to 10 | > 10 |  | 

Row | Structure (SMILES) | IC50 ([1]; LPS-stimulated) [µM] | IC50 [2, 3] [µM] | IC50 [1, 4] [µM] | IC50 [2, 5] [µM]
39 | CC(C)NC(=O)N1c2cc(S(=O)(=O)N3CCCC3)ccc2NC(=O)C1C (stereo not drawn) [BC19298] | < 0.1 | > 10 |  | 
40 | COCCNC(=O)N1c2cc(S(=O)(=O)N3CCCC3)ccc2NC(=O)C1C (stereo not drawn) [BC19299] | 1 to 10 | > 10 |  | 
41 | NS(=O)(=O)c1ccc2c(c1)N1CCCC1C(=O)N2 (stereo not drawn) [BC19300] | 0.1 to 1 | > 10 |  | 
42 | Cc1nnc(-c2ccc3nc(-c4ccc(F)cc4)c(-c4ccc(F)cc4)nc3c2)n1C [BC19301] | < 0.1 | > 10 |  | 
43 | Cn1cc(-c2ccc3nc(-c4ccc(F)cc4)c(-c4ccc(F)cc4)nc3c2)cn1 [BC19302] | 1 to 10 | > 10 |  | 
44 | COc1ncc(-c2ccc3nc(-c4ccc(F)cc4)c(-c4ccc(F)cc4)nc3c2)cc1F [BC19303] | > 10 | > 10 |  | 
45 | Cc1ccncc1-c1ccc2nc(-c3ccc(F)cc3)c(-c3ccc(F)cc3)nc2c1 [BC19304] | 1 to 10 | > 10 |  | 
46 | Cn1ncc2c(-c3ccc4nc(-c5ccc(F)cc5)c(-c5ccc(F)cc5)nc4c3)cccc21 [BC19305] | > 10 | > 10 |  | 
47 | Fc1ccc(-c2nc3ccc(-c4nncn4CCN4CCOCC4)cc3nc2-c2ccc(F)cc2)cc1 [BC19306] | 0.1 to 1 | > 10 |  | 
48 | Cc1ccc(S(=O)(=O)c2nc3cc(C(=O)N4CCN(C)CC4)ccc3nc2-c2ccc(F)cc2)cc1F [BC19307] | 0.1 to 1 | < 0.1 |  | 
49 | Cc1ccc(S(=O)(=O)c2nc3cc(C(=O)N4CCN(C)CC4)ccc3nc2-c2ccc(F)cc2)cc1 [BC19308] | 0.1 to 1 | < 0.1 |  | 
50 | CN1CCC(C(=O)Nc2ccc3nc(-c4ccc(F)cc4)c(-c4ccc(F)cc4)nc3c2)CC1 [BC19309] | 0.1 to 1 | 1 to 10 |  | 
51 | CC(=O)N1CCC(C(=O)Nc2ccc3nc(-c4ccc(F)cc4)c(-c4ccc(F)cc4)nc3c2)CC1 [BC19310] | < 0.1 | > 10 |  | 
52 | CNC(=O)N1CCC(C(=O)Nc2ccc3nc(-c4ccc(F)cc4)c(-c4ccc(F)cc4)nc3c2)CC1 [BC19311] | < 0.1 | > 10 |  | 
53 | CS(=O)(=O)N1CCC(C(=O)Nc2ccc3nc(-c4ccc(F)cc4)c(-c4ccc(F)cc4)nc3c2)CC1 [BC19312] | < 0.1 | 1 to 10 |  | 
54 | C=CC(=O)Nc1ccc2nc(-c3ccc(F)cc3)c(-c3ccc(F)cc3)nc2c1 [BC19313] | 0.1 to 1 | 1 to 10 |  | 
55 | CC#CC(=O)Nc1ccc2nc(-c3ccc(F)cc3)c(-c3ccc(F)cc3)nc2c1 [BC19314] | < 0.1 | 1 to 10 |  | 
56 | C[C@H](Cl)C(=O)Nc1ccc2nc(-c3ccc(F)cc3)c(-c3ccc(F)cc3)nc2c1 [BC19315] | 0.1 to 1 | > 10 |  | 
57 | CN1CCN(C(=O)c2ccc3nc(-c4ccc(F)cc4)c(-c4ccc(C#N)cc4)nc3c2)CC1 [BC19316] | 0.1 to 1 | > 10 |  | 
